Results as given in US9096596B2 (Janssen Pharmaceutica NV, priority 2013, dated 2015).
Where two headings read alike, the source gives them in different places.

Experiments:
P2X7 [1] = biological target: T1, P2X7 (Homo sapiens (Human), UniProt Q99572); test: Radioligand binding, human P2X7-1321N1 cell membranes, tracer tritiated A-804598
Experimental: (§1) On the day of the experiment, cell membrane preparations were made according to standard published methods. […] The compound can be prepared as described in the literature. […] The assay was terminated by filtration (GF/B filters pre-soaked with 0.3% PEI) and washed with washing buffer (Tris-HCl 50 mM). The IC50 generated in the binding assay was corrected for tracer concentration and affinity of the tracer to derive at the affinity (Ki) of the test compounds.

P2X7 [2] = biological target: T1, P2X7; test: Ca2+ flux (FLIPR) in 1321N1 cells expressing recombinant human P2X7 channel; type: cell-based; settings: 250 μM BzATP, Calcium-4 dye
Experimental: 1321N1 cells expressing the recombinant human, rat or mouse P2X7 channel was cultured in HyQ DME/(HyClone/Dulbecco's Modified Eagle Medium) high glucose supplemented with 10% Fetal Bovine Serum (FBS) and appropriate selection marker. Cells were seeded at a density of 25000 cells/well (96-well clear bottom black walled plates) in 100 μl volume/well. On the day of the experiment, cell plates were washed with assay buffer, containing (in mM): 130 NaCl, 2 KCl, 1 CaCl2, 1 MgCl2, 10 HEPES, 5 glucose; pH 7.40 and 300 mOs. After the wash, cells were loaded with the Calcium-4 dye (Molecular Device) and incubated in the dark for 60 minutes. Test compounds were prepared at 250× the test concentration in neat DMSO. Intermediate 96-well compound plates were prepared by transferring 1.2 μL of the compound into 300 μL of assay buffer. A further 3× dilution occurred when transferring 50 μL/well of the compound plate to 100 μL/well in the cell plate. Cells were incubated with test compounds and dye for 30 minutes. […] The fluorescence change was measured 180 seconds after adding the agonist.

rat P2X7 [3] = biological target: T2, rat P2X7 (Rattus norvegicus (Rat), UniProt Q64663); test: Radioligand binding, rat P2X7-1321N1 cell membranes, tracer tritiated A-804598
T2 sequence (Q64663 whole entry): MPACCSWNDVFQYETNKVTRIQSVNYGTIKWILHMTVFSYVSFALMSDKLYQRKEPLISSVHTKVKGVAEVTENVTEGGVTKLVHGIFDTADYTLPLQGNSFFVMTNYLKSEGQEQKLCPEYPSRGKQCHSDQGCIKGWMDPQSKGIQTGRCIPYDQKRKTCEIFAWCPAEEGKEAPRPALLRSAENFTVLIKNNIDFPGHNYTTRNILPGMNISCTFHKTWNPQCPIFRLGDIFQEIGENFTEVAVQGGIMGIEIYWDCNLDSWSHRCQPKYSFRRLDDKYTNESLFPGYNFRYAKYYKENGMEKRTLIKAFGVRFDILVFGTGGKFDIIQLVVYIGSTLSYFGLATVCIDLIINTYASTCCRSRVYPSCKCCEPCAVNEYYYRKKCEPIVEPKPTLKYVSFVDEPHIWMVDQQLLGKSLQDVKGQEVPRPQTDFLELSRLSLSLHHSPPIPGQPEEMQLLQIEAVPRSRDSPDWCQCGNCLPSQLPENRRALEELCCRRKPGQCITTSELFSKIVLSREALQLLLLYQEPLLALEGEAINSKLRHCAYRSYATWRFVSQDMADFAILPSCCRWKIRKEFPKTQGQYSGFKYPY
Experimental: as §1

rat P2X7 [4] = biological target: T2, rat P2X7; test: Ca2+ flux (FLIPR) in 1321N1 cells expressing recombinant rat P2X7 channel; type: cell-based; settings: 250 μM BzATP, Calcium-4 dye
Outline: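 1321N1 cells stably expressing P2X7 were loaded with Calcium-4 dye for 60 min in HEPES-buffered saline (pH 7.40, 1 mM CaCl2, 1 mM MgCl2), then preincubated with test compounds for 30 min. Fluorescence change was read 180 s after agonist addition.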

P2X7 [5] = biological target: T1, P2X7; test: P2X7 antagonism in human PBMCs (IL-1β release, ELISA); type: cell-based; settings: test compound 10 μM, IL-1β release in human PBMCs, LPS 30 ng/ml + Bz-ATP 0.5 mM, read-out: PBMC 10 μM (% control)
Experimental: Human blood was collected using a blood donor program. […] Cells were incubated for an additional 1.5 hours. […] In Table 2, when the data cell has been left blank, it is intended to mean that the compound was not tested in that assay.

[6] = human P2X7-1321N1 membranes, 1 hour at 4° C., IC50 corrected for tracer concentration and affinity
[7] = rat P2X7-1321N1 membranes, 1 hour at 4° C., IC50 corrected for tracer concentration and affinity

T1 sequence (Q99572 whole entry): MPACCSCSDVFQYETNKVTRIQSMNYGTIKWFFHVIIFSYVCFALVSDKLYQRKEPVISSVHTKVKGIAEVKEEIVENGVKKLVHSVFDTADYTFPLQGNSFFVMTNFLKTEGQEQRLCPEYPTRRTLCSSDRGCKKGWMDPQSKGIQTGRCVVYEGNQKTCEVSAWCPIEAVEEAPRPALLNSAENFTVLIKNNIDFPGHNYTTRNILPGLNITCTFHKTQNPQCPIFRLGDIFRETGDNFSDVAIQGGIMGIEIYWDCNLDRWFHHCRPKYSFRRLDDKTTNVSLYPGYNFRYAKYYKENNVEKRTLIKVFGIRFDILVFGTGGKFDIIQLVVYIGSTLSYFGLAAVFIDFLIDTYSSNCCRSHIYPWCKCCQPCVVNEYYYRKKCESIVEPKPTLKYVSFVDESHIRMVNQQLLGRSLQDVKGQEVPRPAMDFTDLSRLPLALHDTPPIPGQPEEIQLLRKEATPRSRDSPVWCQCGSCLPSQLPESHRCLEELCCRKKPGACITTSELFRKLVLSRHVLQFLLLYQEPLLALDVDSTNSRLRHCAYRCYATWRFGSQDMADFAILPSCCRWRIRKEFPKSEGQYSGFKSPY

| Ki (P2X7 [1]) | IC50 (P2X7 [2]) | Ki (rat P2X7 [3]) | IC50 (rat P2X7 [4]) | Ki (P2X7 [1]; [6]) | Ki (rat P2X7 [3]; [7]) | remaining activity at 10 µM (P2X7 [5]) | SMILES |
| --- | --- | --- | --- | --- | --- | --- | --- |
| 25.1 nM | 31 nM | 3.5 nM | 12.9 nM | – | – | – | Cc1nc2c(c(-c3ccn(CCF)n3)n1)C[C@@H](C)N(C(=O)c1cccc(C(F)(F)F)c1Cl)C2 (single isomer, unassigned) [Example 124, (R*)-(2-chloro-3-(trifluoromethyl)phenyl)(4-(1-(2-fluoroethyl)-1H-pyrazol-3-yl)-2,6-dimethyl-5,6-dihydropyrido[3,4-d]pyrimidin-7(8H)-yl)methanone] |
| 31.6 nM | 29.6 nM | 3 nM | 9.7 nM | – | – | – | COCCn1ccc(-c2nc(C)nc3c2C[C@@H](C)N(C(=O)c2cccc(C(F)(F)F)c2Cl)C3)n1 (single isomer, unassigned) [Example 128, (R*)-(2-chloro-3-(trifluoromethyl)phenyl)(4-(1-(2-methoxyethyl)-1H-pyrazol-3-yl)-2,6-dimethyl-5,6-dihydropyrido[3,4-d]pyrimidin-7(8H)-yl)methanone] |
| – | 36.5 nM | – | 3240 nM | 95.5 nM | 251 nM | – | O=C(c1cccc(Cl)c1Cl)N1CCc2c(ncnc2-c2ccccc2)C1 [Example 2, 7-[(2,3-Dichlorophenyl)carbonyl]-4-phenyl-5,6,7,8-tetrahydropyrido[3,4-d]pyrimidine] |
| – | 416 nM | – | > 10000 nM | 37.2 nM | 61.7 nM | – | O=C(c1cccc(Cl)c1Cl)N1CCc2c(ncnc2-c2ccccn2)C1 [Example 11, 7-[(2,3-Dichlorophenyl)carbonyl]-4-pyridin-2-yl-5,6,7,8-tetrahydropyrido[3,4-d]pyrimidine] |
| – | 25.1 nM | – | 3160 nM | 63.1 nM | 31.6 nM | – | O=C(c1cccc(Cl)c1Cl)N1CCc2c(ncnc2-c2cnccn2)C1 [Example 14, 7-[(2,3-Dichlorophenyl)carbonyl]-4-pyrazin-2-yl-5,6,7,8-tetrahydropyrido[3,4-d]pyrimidine] |
| – | 31.6 nM | – | 6310 nM | 79.4 nM | 50.1 nM | – | Cc1c(C(=O)N2CCc3c(ncnc3-c3cnccn3)C2)cccc1C(F)(F)F [Example 15, 7-{[2-Methyl-3-(trifluoromethyl)phenyl]carbonyl}-4-pyrazin-2-yl-5,6,7,8-tetrahydropyrido[3,4-d]pyrimidine] |
| – | 10.3 nM | – | 76.2 nM | 20 nM | 5 nM | – | O=C(c1cccc(C(F)(F)F)c1Cl)N1CCc2c(ncnc2-c2ccn[nH]2)C1 [Example 18, (4-(1H-pyrazol-5-yl)-5,6-dihydropyrido[3,4-d]pyrimidin-7(8H)-yl)(2-chloro-3-(trifluoromethyl)phenyl)methanone] |
| – | 86.1 nM | – | 2020 nM | 63.1 nM | 20 nM | – | Cc1nc2c(c(-c3ccn[nH]3)n1)CCN(C(=O)c1cccc(Cl)c1Cl)C2 [Example 34, 7-[(2,3-Dichlorophenyl)carbonyl]-2-methyl-4-(1H-pyrazol-5-yl)-5,6,7,8-tetrahydropyrido[3,4-d]pyrimidine] |
| – | – | – | – | 79.4 nM | 31.6 nM | – | Cc1nc2c(c(-c3[nH]ncc3F)n1)CCN(C(=O)c1cccc(Cl)c1Cl)C2 [Example 36, 7-[(2,3-Dichlorophenyl)carbonyl]-4-(4-fluoro-1H-pyrazol-5-yl)-2-methyl-5,6,7,8-tetrahydropyrido[3,4-d]pyrimidine] |
| – | 21 nM | – | 556 nM | 100 nM | – | 5% | CN(C)c1nc2c(c(-c3ccn[nH]3)n1)CCN(C(=O)c1cccc(C(F)(F)F)c1Cl)C2 [Example 54, 7-{[2-Chloro-3-(trifluoromethyl)phenyl]carbonyl}-N,N-dimethyl-4-(1H-pyrazol-5-yl)-5,6,7,8-tetrahydropyrido[3,4-d]pyrimidin-2-amine] |
| – | 16.5 nM | – | 161 nM | 63.1 nM | – | -9.6% | O=C(c1cccc(C(F)(F)F)c1Cl)N1CCc2c(nc(C3CC3)nc2-c2ccn[nH]2)C1 [Example 57, 7-{[2-Chloro-3-(trifluoromethyl)phenyl]carbonyl}-2-cyclopropyl-4-(1H-pyrazol-5-yl)-5,6,7,8-tetrahydropyrido[3,4-d]pyrimidine] |
| – | 7.8 nM | – | 5.6 nM | 25.1 nM | – | 44.7% | CC1Cc2c(ncnc2-c2ccn[nH]2)CN1C(=O)c1cccc(C(F)(F)F)c1Cl (stereo not shown) [Example 62, (2-chloro-3-(trifluoromethyl)phenyl)(6-methyl-4-(1H-pyrazol-5-yl)-5,6-dihydropyrido[3,4-d]pyrimidin-7(8H)-yl)methanone] |
| – | 316 nM | – | 2.5 nM | 22.4 nM | – | -4.1% | CC1Cc2c(nc(N)nc2-c2ccn[nH]2)CN1C(=O)c1cccc(C(F)(F)F)c1Cl (stereo not shown) [Example 63, (2-amino-6-methyl-4-(1H-pyrazol-5-yl)-5,6-dihydropyrido[3,4-d]pyrimidin-7(8H)-yl)(2-chloro-3-(trifluoromethyl)phenyl)methanone] |
| – | 63.1 nM | – | – | 31.6 nM | – | 20.9% | Cc1nc2c(c(-c3ccn[nH]3)n1)CC(C)N(C(=O)c1cccc(C(F)(F)F)c1C)C2 (stereo not shown) [Example 77, (2,6-dimethyl-4-(1H-pyrazol-5-yl)-5,6-dihydropyrido[3,4-d]pyrimidin-7(8H)-yl)(2-methyl-3-(trifluoromethyl)phenyl)methanone] |
| – | 33.6 nM | – | – | 31.6 nM | – | 0.4% | Cc1nc2c(c(-c3ccn[nH]3)n1)CC(C)N(C(=O)c1ccc(Cl)cc1F)C2 (stereo not shown) [Example 87, (4-chloro-2-fluorophenyl)(2,6-dimethyl-4-(1H-pyrazol-5-yl)-5,6-dihydropyrido[3,4-d]pyrimidin-7(8H)-yl)methanone] |
| – | 28.5 nM | – | 385 nM | 200 nM | – | -1.7% | Cc1nc2c(c(-c3ccn[nH]3)n1)CC(C)N(C(=O)c1ccc(F)cc1F)C2 (stereo not shown) [Example 93, (2,4-difluorophenyl)(2,6-dimethyl-4-(1H-pyrazol-5-yl)-5,6-dihydropyrido[3,4-d]pyrimidin-7(8H)-yl)methanone] |
| – | 50 nM | – | 1840 nM | 631 nM | – | 3.8% | Cc1nc2c(c(-c3ccn[nH]3)n1)CC(C)N(C(=O)c1ccc(Cl)cc1)C2 (stereo not shown) [Example 96, (4-chlorophenyl)(2,6-dimethyl-4-(1H-pyrazol-5-yl)-5,6-dihydropyrido[3,4-d]pyrimidin-7(8H)-yl)methanone] |
| – | 166 nM | – | 14000 nM | 200 nM | – | -3.1% | Cc1nc2c(c(-c3ccn[nH]3)n1)CC(C)N(C(=O)c1ccccc1Cl)C2 (stereo not shown) [Example 97, (2-chlorophenyl)(2,6-dimethyl-4-(1H-pyrazol-5-yl)-5,6-dihydropyrido[3,4-d]pyrimidin-7(8H)-yl)methanone] |
| – | – | – | 67.9 nM | – | 7.9 nM | – | O=C(c1cccc(C(F)(F)F)c1Cl)N1CCc2c(ncnc2-n2nccn2)C1 [Example 108, 7-{[2-Chloro-3-(trifluoromethyl)phenyl]carbonyl}-4-(2H-1,2,3-triazol-2-yl)-5,6,7,8-tetrahydropyrido[3,4-d]pyrimidine] |
| – | 12.1 nM | – | 485 nM | 12.6 nM | – | 2.2% | O=C(c1cccc(C(F)(F)F)c1Cl)N1CCc2c(ncnc2-n2cnnc2)C1 [Example 109, (4-(4H-1,2,4-triazol-4-yl)-5,6-dihydropyrido[3,4-d]pyrimidin-7(8H)-yl)(2-chloro-3-(trifluoromethyl)phenyl)methanone] |
| – | 353 nM | – | 807 nM | 50.1 nM | – | 0.6% | O=C(c1cccc(C(F)(F)F)c1F)N1CCc2c(ncnc2-c2ccn[nH]2)C1 [Example 111, (4-(1H-pyrazol-5-yl)-5,6-dihydropyrido[3,4-d]pyrimidin-7(8H)-yl)(2-fluoro-3-(trifluoromethyl)phenyl)methanone] |
| – | 17.4 nM | – | 1090 nM | 63.1 nM | – | 12.9% | O=C(c1cccc(C(F)(F)F)c1Cl)N1CCc2c(ncnc2-c2cccc(F)n2)C1 [Example 130, (2-chloro-3-(trifluoromethyl)phenyl)(4-(6-fluoropyridin-2-yl)-5,6-dihydropyrido[3,4-d]pyrimidin-7(8H)-yl)methanone] |
